Where no end group is shown, it is not given here.
Experiments:
[1] = test system: post-vaccine PBMC of patient 32; experiment: Lymphoproliferation of post-vaccine PBMC of patient 32; format: cell-based, human; conditions: multiple IVS cycles
[2] = test system: T2 cell line as target of CD8+ CTL line of RAS patient 32; experiment: 51Cr-release cytotoxicity of CD8+ CTL line of RAS patient 32 against peptide-pulsed T2 targets; format: cell-based, human; conditions: peptide 10 μg/ml, IVS cycle 7 (FIG. 5)
Method: FIG. 5. Cytolytic activity by CD8^+ CTL line of RAS patient 32 is peptide-specific. The CD8^+ CTL line of RAS patient 32 (see FIG. 3) was assayed against the T2 cell line as a target, incubated with and without different ras peptides (10 μg/ml), as shown. In parallel, the extent of NK activity was evaluated against K562 cells. Cytotoxicity was determined by ^51Cr-release, and the results expressed at different E/T ratios following IVS cycle 7. Similar results were observed using the second, independently-derived CD8^+ CTL line as described in Table 6.
IVS cycles for evaluation of CD8^+ T cell responses from HLA-A2+Patients. Freshly-thawed PBMC (from ras patients 32 and 33), derived pre-vaccination and post-third vaccination, were enriched in T lymphocytes by passage over nylon wool columns (Robbins Scientific, Sunnyvale, Calif.) and then depleted of CD4^+ T cells by negative selection via panning on anti-CD4 MAb-coated T25 flasks (Applied Immune Sciences, Santa Clara, Calif.). For the first IVS cycle, CD8^+ enriched lymphocytes (5×10^5/well) were cultured in 24-well plates with irradiated, autologous PBMC (5×10^6/well) as APC which had been preincubated for 3 hours with the appropriate mutant ras peptide ([…]) plus human β2-microglobulin (10 μg/ml) (Calbiochem, San Diego, Calif.). […] IL-2 (10 U/ml) was added 3 days later. After an additional 7 days, viable cells (2-5×10^5/well) were re-cultured by weekly stimulation with APC pre-pulsed with peptide/β2-microglobulin, and IL-2 added one day later. After the third or fourth IVS cycle, autologous PBMC were replaced with EBV-transformed, autologous BLCL (5×10^5/well) as APC. […] CTL activity was evaluated from cultures 5 to 6 days after Ag restimulation.
Cytotoxic response. Cytotoxicity was examined by a conventional ^51Cr-release assay, as described (6). Briefly, target cells (i.e. T2, C1R-A2, BLCL, K562) were radiolabeled with 200 μCi of Na2[^51Cr]04 (Amersham) for 60 minutes at 37° C., followed by thorough washing to remove unincorporated isotope. Effectors and targets (1×10^4/well) were incubated in 96-well, U-bottomed plates (Costar) at various effector target (E/T) ratios in the absence and presence of peptide (+/−monoclonal antibody (MAb) directed against CD4, CD8 or HLA-A2 molecules (clone BB7.2 from ATCC)) for up to 6 hours. After incubation, supernatants were collected using a Supernatant Collection System (Skatron, Sterling, Va.) and radioactivity measured in a γ-counter (Packard Instruments, Downers Grove, Ill.). Cytotoxic activity was defined as percent specific release of ^51Cr and determined by the equation: [(experimentalcpm−spontaneouscpm)/maximumcpm−spontaneouscpm)]×100. Results were expressed as the mean±SEM of triplicate cultures. […]

[3] = test system: ras p21 codon 12 mutated carcinoma patients; experiment: Phase I vaccination of metastatic carcinoma patients with mutant ras 13-mer peptide in Detox adjuvant; format: in vivo, human; conditions: patient 32, 0.1 mg/vaccination x3 in Detox adjuvant, s.c.
Source text: Patient selection. Adult cancer patients with histologically confirmed diagnosis of adenocarcinoma of the colon, gastrointestinal tract, lung or pancreas with metastatic disease, were screened as potential candidates for this phase I clinical study. Tumor samples from these patients were examined for point mutations in the K-ras gene at codon 12 by polymerase chain reaction (PCR) of paraffin-embedded sections by methods known in the art. In addition to fulfilling all other essential inclusion criteria as specified in the FDA-approved NCI clinical protocol, those patients presenting the appropriate K-ras mutation were then selected for study entry.
Peptides and immunizations. Mutant ras 13-mer peptides used as immunogens were synthesized as clinical grade reagents under GMP conditions (Bachem, Torrance, Calif.: >97% purity by HPLC). Control and additional experimental peptides, which were used in vitro, either were prepared commercially (Bachem) or synthesized in the laboratory on an Applied Biosystems Model 432A personal peptide synthesizer (Foster City, Calif.) using Fmoc chemistry (>90% purity by HPLC). These reagent-grade products were dissolved in aqueous solution at 2 mg/ml, filter-sterilized and stored in aliquots at −70° C. The normal sequence of ras p21 reflecting positions 5-17 is […]([…]) (SEQ. ID NO. 1). […]

[4] = test system: HLA-A2+ peptide-pulsed targets; experiment: Generation and cytotoxicity of ras4-12(V12)-specific CD8+ CTL line from a normal HLA-A2+ donor; format: cell-based, human; conditions: wild-type printed as wild-type ras peptide
[5] = test system: BALB/c mouse; experiment: Induction of MHC class I-restricted CD8+ CTL responses in the mouse; format: in vivo, mouse (BALB/c; H-2^d); conditions: H-2^d
Source text: The basis of immunogenicity, in part, was attributed to the introduction of the mutated Val12 residue, which created a dominant C-terminus anchor for MHC class I binding. The resulting CD8^+ CTL response, thus, likely reflected T cell receptor recognition of a previously unseen peptide/MHC complex. In contrast to the ras5-14 sequence, ras4-12(V12) only partly shared the consensus motif for HLA-A2 binding, as the leucine anchor shifted from position 2 to 3. Importantly, the introduction of the mutated Val12 residue, as in the mouse, now created a dominant C-terminus anchor. […] (See FIG. 6).

[6] = target: T1, human HLA-A2 (Homo sapiens, UniProt P04439, D140Y/D185E/D98H/E176V/E277Q/G131W/G231S/I119V/I121R/I166T/I218V/L300P/L318F/N151K/N90K/P208A/P217A/Q86G/Q94H/R138H/R169H/T345S); experiment: HLA-A2 binding bioassay on T2 cells (flow cytometry); conditions: T2 bioassay
T1 construct: The 174CEM.T2 cell line (“T2”), (transport deletion mutant); endogenous in cells; host or cells: 174CEM.T2 (T2) human cell line

Substance | CD4+ proliferative response against immunizing 13-mer peptide [1] | Sensitization of T2 targets for lysis (in words) [2] | T cell response induced by vaccination [3] | Generation of peptide-specific CTL line / lysis of peptide-pulsed targets (in words) [4] | Induction of CD8+ CTL responses in mouse [5] | Binding to HLA-A2 on T2 cells (in words) [6]
Lys-Leu-Val-Val-Val-Gly-Ala-Asp-Gly-Val-Gly-Lys-Ser [ras5-17(Asp12)] | No specific CD4^+ proliferative response was observed | did not appear to induce cytotoxicity | led to peptide-specific CD8^+ CTL activation | – | – | –
YKLVVVGAV [ras4-12(V12)] | – | – | – | A CD8^+ CTL line specific for ras4-12(V12) was then derived | resulted in the induction of MHC class I-restricted CD8^+ CTL responses | specific, albeit weak, binding to HLA-A2

Source: patent US7709002B1, “Mutated ras peptides for generation of CD8+Cytotoxic T lymphocytes” (The United States of America as represented by the …, priority 1996, dated 2010)
